Assay results from ChEMBL document CHEMBL4715770, “Inhibition of Low Molecular Weight Protein Tyrosine Phosphatase by an Induced-Fit Mechanism” (J Med Chem, 2016).

Experiments:
[1] = molecular target: Receptor-type tyrosine-protein phosphatase beta (Homo sapiens, UniProt P23467); assay: Inhibition of His-tagged PTPbeta (unknown origin) expressed in Escherichia coli BL21 cells using para-nitrophenyl phosphate as substrate incubated for 5 to 10 mins by microplate reader based spectrophotometric analysis
[2] = molecular target: T1, Tyrosine-protein phosphatase non-receptor type 11 (Homo sapiens, UniProt Q06124); assay: Inhibition of His-tagged SHP2 (unknown origin) expressed in Escherichia coli BL21 cells using para-nitrophenyl phosphate as substrate incubated for 5 to 10 mins by microplate reader based spectrophotometric analysis
T1 sequence (Q06124 whole entry): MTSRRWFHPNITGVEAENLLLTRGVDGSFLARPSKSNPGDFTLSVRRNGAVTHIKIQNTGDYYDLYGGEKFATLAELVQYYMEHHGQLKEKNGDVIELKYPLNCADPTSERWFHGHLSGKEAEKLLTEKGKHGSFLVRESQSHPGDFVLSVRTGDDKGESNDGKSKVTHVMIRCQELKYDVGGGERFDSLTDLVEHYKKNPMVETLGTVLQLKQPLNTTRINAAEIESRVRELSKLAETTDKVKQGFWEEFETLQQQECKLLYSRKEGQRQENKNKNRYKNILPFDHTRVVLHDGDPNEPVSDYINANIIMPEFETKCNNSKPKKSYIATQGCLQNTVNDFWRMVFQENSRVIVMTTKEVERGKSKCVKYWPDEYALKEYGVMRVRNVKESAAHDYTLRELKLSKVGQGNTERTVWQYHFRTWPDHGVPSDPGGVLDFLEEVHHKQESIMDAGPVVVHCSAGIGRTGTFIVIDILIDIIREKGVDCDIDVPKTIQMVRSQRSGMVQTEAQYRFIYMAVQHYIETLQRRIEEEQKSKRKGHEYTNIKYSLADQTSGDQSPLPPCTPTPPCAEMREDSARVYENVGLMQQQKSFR

[3] = molecular target: T2, Dual specificity protein phosphatase CDC14A (Homo sapiens, UniProt Q9UNH5); assay: Inhibition of His-tagged CDC14A (unknown origin) expressed in Escherichia coli BL21 cells using para-nitrophenyl phosphate as substrate incubated for 5 to 10 mins by microplate reader based spectrophotometric analysis
T2 sequence (Q9UNH5 whole entry): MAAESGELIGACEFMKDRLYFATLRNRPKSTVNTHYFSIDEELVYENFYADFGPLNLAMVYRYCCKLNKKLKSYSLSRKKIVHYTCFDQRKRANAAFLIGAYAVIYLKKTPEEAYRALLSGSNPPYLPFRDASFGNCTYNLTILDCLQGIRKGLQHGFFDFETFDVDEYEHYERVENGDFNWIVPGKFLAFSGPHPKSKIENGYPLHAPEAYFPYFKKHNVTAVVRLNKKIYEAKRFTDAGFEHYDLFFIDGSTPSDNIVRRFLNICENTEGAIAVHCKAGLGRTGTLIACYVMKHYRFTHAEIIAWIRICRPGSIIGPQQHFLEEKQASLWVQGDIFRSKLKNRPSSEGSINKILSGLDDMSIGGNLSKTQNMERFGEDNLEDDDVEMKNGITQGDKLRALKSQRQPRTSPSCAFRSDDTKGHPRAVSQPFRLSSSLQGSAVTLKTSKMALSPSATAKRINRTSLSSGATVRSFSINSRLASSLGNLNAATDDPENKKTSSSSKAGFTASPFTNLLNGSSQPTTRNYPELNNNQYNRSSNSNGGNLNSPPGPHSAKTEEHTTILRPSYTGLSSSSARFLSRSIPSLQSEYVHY

[4] = molecular target: Receptor-type tyrosine-protein phosphatase gamma (Homo sapiens, UniProt P23470); assay: Inhibition of His-tagged PTPgamma (unknown origin) expressed in Escherichia coli BL21 cells using para-nitrophenyl phosphate as substrate incubated for 5 to 10 mins by microplate reader based spectrophotometric analysis
[5] = molecular target: Receptor-type tyrosine-protein phosphatase alpha (Homo sapiens, UniProt P18433); assay: Inhibition of His-tagged PTPalpha (unknown origin) expressed in Escherichia coli BL21 cells using para-nitrophenyl phosphate as substrate incubated for 5 to 10 mins by microplate reader based spectrophotometric analysis
[6] = molecular target: Tyrosine-protein phosphatase non-receptor type 6 (Homo sapiens, UniProt P29350); assay: Inhibition of His-tagged SHP1 (unknown origin) expressed in Escherichia coli BL21 cells using para-nitrophenyl phosphate as substrate incubated for 5 to 10 mins by microplate reader based spectrophotometric analysis
[7] = molecular target: T3, Dual specificity protein phosphatase 23 (Homo sapiens, UniProt Q9BVJ7); assay: Inhibition of His-tagged VHZ (unknown origin) expressed in Escherichia coli BL21 cells using para-nitrophenyl phosphate as substrate incubated for 5 to 10 mins by microplate reader based spectrophotometric analysis
T3 sequence (Q9BVJ7 whole entry): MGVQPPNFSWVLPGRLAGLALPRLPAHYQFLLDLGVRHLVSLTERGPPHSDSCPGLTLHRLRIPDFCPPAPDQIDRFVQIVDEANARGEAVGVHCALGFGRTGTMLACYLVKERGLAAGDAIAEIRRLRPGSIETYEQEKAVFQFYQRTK

[8] = molecular target: T4, Serine/threonine-protein phosphatase 5 (Homo sapiens, UniProt P53041); assay: Inhibition of His-tagged PP5 (unknown origin) expressed in Escherichia coli BL21 cells using para-nitrophenyl phosphate as substrate incubated for 5 to 10 mins by microplate reader based spectrophotometric analysis
T4 sequence (P53041 whole entry): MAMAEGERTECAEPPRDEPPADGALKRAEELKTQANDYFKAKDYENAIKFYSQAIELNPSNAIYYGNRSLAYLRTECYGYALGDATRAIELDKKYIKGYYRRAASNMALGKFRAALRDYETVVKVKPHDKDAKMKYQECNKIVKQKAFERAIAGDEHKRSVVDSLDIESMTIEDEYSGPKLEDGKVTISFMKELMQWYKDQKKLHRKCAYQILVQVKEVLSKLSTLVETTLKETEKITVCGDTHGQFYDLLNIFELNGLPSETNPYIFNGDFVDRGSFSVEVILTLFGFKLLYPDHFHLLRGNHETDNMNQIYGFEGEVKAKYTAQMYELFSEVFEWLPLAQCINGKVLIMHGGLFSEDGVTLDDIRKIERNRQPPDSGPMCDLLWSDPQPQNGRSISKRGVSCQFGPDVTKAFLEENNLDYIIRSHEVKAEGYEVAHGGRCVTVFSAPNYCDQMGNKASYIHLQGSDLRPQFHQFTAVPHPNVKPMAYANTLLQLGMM

Sequence of Receptor-type tyrosine-protein phosphatase alpha (P18433 whole entry): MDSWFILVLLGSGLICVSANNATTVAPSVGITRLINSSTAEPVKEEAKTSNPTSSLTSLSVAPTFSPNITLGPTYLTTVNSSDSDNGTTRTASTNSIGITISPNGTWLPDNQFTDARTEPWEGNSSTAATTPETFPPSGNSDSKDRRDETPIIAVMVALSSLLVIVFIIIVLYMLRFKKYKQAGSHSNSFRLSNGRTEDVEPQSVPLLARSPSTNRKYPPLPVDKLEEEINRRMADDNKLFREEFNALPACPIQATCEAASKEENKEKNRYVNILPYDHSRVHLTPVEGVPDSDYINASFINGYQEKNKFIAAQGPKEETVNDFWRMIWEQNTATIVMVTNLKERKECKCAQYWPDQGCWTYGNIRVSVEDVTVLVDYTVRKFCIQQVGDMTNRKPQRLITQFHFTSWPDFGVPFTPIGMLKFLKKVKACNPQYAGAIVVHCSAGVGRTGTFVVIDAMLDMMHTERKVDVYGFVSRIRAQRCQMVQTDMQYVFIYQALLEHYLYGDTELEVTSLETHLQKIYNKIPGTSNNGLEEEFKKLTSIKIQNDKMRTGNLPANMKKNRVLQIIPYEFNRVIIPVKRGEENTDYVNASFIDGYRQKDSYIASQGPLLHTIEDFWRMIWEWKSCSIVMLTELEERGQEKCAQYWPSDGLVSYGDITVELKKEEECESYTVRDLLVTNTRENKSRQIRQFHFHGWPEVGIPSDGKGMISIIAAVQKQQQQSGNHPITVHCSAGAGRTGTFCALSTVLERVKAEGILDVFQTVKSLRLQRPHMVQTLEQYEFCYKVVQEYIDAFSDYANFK
Sequence of Receptor-type tyrosine-protein phosphatase gamma (P23470 whole entry): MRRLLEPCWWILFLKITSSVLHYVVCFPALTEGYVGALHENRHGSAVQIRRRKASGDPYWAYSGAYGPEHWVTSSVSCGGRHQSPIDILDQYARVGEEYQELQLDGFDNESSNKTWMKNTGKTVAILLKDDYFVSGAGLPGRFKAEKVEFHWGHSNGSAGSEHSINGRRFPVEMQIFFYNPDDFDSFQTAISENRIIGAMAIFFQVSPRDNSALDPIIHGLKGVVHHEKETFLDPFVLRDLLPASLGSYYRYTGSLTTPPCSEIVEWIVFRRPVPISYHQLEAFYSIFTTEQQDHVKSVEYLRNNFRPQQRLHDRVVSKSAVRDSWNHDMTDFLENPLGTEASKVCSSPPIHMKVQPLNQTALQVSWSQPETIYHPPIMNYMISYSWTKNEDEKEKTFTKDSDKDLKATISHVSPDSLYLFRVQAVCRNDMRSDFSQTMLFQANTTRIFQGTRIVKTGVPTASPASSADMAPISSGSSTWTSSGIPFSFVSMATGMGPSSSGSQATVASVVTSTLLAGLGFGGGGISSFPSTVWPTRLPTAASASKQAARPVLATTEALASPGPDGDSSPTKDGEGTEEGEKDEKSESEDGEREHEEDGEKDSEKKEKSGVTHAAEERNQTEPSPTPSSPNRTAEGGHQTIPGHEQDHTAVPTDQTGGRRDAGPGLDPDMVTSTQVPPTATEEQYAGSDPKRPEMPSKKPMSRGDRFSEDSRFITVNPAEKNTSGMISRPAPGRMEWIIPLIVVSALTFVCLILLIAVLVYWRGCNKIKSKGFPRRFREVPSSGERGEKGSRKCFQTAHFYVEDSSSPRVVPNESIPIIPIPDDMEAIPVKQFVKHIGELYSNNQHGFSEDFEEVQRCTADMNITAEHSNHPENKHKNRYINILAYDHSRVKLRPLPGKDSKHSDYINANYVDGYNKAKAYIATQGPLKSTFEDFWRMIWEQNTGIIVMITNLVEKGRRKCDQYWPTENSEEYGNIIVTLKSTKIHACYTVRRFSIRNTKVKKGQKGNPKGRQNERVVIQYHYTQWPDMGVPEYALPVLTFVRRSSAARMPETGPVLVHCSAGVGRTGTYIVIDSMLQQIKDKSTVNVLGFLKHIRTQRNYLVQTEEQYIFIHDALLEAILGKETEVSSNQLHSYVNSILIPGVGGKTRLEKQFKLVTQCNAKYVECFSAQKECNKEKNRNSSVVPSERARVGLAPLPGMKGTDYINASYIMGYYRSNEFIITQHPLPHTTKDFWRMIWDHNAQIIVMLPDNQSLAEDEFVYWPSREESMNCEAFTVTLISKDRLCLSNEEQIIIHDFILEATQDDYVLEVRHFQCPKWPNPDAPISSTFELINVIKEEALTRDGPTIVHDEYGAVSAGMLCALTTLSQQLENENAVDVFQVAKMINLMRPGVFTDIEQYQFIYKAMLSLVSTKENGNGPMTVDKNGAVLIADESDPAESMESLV
Sequence of Tyrosine-protein phosphatase non-receptor type 6 (P29350 whole entry): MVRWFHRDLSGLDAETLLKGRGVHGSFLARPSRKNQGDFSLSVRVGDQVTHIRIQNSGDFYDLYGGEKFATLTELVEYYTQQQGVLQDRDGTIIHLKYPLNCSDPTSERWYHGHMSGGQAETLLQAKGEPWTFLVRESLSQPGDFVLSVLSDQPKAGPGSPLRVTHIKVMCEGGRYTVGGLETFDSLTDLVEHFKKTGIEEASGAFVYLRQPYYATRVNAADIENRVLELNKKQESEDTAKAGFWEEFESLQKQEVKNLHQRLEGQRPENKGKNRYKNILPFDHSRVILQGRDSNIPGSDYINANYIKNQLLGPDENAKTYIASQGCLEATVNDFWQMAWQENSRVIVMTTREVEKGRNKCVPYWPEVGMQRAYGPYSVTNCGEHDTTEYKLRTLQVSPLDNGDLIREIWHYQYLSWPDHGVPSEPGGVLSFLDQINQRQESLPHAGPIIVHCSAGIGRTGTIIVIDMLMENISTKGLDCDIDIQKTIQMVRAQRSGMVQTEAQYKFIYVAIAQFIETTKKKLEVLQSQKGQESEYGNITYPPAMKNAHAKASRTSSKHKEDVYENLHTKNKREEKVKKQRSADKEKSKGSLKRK
Sequence of Receptor-type tyrosine-protein phosphatase beta (P23467 whole entry): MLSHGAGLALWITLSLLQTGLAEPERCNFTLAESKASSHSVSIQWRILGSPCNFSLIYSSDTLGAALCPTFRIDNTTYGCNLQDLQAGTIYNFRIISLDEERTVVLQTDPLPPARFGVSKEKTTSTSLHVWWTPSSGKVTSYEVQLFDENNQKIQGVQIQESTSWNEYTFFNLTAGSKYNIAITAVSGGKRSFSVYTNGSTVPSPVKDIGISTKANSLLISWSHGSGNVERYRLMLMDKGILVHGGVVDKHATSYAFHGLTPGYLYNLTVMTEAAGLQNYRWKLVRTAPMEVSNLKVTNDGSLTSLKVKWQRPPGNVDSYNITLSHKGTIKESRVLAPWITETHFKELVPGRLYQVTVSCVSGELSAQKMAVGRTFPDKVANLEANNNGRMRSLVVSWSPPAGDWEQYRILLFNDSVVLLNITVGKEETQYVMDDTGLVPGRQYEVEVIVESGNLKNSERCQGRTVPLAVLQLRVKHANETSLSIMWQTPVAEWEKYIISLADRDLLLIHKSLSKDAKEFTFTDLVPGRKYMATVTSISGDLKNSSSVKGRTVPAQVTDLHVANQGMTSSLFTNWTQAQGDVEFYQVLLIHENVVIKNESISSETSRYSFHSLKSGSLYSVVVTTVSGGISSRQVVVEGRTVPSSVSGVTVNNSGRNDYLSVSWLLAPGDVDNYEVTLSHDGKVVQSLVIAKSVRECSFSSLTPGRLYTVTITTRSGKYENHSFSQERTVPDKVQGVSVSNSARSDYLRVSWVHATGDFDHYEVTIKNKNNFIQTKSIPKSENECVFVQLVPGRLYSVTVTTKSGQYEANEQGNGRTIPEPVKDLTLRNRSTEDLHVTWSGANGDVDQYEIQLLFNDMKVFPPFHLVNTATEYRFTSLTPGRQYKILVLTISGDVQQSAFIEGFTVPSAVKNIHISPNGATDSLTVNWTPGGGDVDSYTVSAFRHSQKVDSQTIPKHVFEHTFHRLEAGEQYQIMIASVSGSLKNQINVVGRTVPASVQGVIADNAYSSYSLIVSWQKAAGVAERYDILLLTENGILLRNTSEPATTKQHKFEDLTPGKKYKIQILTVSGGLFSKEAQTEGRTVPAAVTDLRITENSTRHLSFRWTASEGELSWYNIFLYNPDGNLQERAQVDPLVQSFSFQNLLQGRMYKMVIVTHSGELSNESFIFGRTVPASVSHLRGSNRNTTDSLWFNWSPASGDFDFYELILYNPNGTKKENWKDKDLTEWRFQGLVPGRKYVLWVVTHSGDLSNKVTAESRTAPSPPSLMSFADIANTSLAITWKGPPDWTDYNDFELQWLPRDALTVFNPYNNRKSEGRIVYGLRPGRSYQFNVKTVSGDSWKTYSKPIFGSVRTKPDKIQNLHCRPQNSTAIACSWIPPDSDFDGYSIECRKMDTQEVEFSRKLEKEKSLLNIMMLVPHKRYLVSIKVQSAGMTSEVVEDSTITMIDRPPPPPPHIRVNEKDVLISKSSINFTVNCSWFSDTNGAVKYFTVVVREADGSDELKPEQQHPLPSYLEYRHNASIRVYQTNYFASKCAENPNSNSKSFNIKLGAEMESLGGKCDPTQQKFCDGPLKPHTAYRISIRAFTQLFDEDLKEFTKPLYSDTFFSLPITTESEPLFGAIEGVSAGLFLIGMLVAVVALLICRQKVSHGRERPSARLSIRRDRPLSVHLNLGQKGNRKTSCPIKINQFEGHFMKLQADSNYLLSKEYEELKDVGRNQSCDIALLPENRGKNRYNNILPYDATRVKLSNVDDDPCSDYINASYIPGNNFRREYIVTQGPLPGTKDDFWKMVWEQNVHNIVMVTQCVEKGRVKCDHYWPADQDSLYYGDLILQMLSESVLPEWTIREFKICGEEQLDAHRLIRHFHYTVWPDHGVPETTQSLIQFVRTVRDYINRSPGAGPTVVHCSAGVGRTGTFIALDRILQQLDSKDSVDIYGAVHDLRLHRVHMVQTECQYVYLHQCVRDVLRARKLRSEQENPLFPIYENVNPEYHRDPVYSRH

Row | Structure (SMILES) | IC50 [1] [µM] | IC50 [2] [µM] | IC50 [3] [µM] | IC50 [4] [µM] | IC50 [5] [µM] | IC50 [6] [µM] | IC50 [7] [µM] | IC50 [8] [µM]
1 | O=C(Nc1cc(C(F)(F)F)cc(C(F)(F)F)c1)C(c1ccccc1)S(=O)(=O)O (centres undefined) | > 200 | > 200 | > 200 | > 200 | > 200 | > 200 | > 200 | > 200
2 | O=C(Nc1ccc(-n2ccnc2)cc1)C(c1ccccc1)S(=O)(=O)O (centres undefined) | > 100 | > 100 | > 100 | > 100 | > 100 | > 100 | > 100 | > 100
3 | O=C(Nc1ccc(OCc2ccccc2)c(Cl)c1)C(c1ccccc1)S(=O)(=O)O (centres undefined) | > 200 | – | > 200 | > 200 | > 200 | > 200 | > 200 | > 200
4 | Cc1c(Br)cc(NC(=O)C(c2ccccc2)S(=O)(=O)O)cc1Br (centres undefined) | > 200 | > 200 | > 200 | > 200 | > 200 | > 200 | > 200 | > 200
5 | O=C(Nc1nc2ccc([N+](=O)[O-])cc2s1)C(c1ccccc1)S(=O)(=O)O (centres undefined) | > 100 | > 100 | > 100 | > 100 | > 100 | > 100 | > 100 | > 100
